The test relates to neuronal cells. Briefly: Intracellular calcium level [Ca2+]i in primary neurons (Fura-2 fluorescence ratio 340/380 nm). In kind it is cell-based, rat. The text has this: Material: The same materials as described in Perovic et al. (1998, Mech. Ageing Dev. 101:1-19) were used. Fura-2-acetoxymethylester (Fura-2-AM) was obtained from Molecular Probes (Leiden, The Netherlands), Dulbecco's modified Eagle's Medium with 4.5 g/L glucose (DMEM/HG), L-glutamic acid (L-Glu), and serotonin (5-HT) from Sigma-Aldrich (Taufkirchen, Germany) and the antibodies mouse-anti-neurofilament (68 kDa) and mouse-anti-glial-fibrillary-acidic-protein (GFAP) from Roche Diagnostics (Mannheim, Germany). Sorbicillactone A of the batch: 2208/2a was used.
Primary neurons: The cortical cell culture was produced from the brains of 17-18 day-old rat embryos, according to a modified procedure [Freshney (1987) Culture of specific cell types. In: Culture of Animal Cells. A Manual of Basic Technique, A. R. Liss, New York, S. 257-288; Perovic et al. (1994) Eur. J. Pharmacol. (Mol. Pharmacol. Sec.) 288:27-33]. After the isolation, the cerebral-hemispheres were put into Hank's Balanced Salt Solution (HBSS) without Ca^2+ and Mg^2+, and the neuronal cells were subsequently dissociated in HBSS using 0.025% (w/v) trypsin (10 min.; 37° C.). The proteolytic reaction was stopped with 10% (v/v) foetal calf serum (FCS). The single-cell suspensions were centrifuged, and the resulting pellet was taken up into Dulbecco's modified Eagles's Medium with 4.5 g/L glucose (DMEM/HG) (contains 2 mM L-glutamine, 100 mU/L insulin, and 10% (v/v) FCS). The cells were plated in a chamber with poly-L-lysine (5 μg/mL, 300 μl/cm^2) in a cell density of 2.0×10^5 cells/cm^2. After two days the DMEM/HG/10%-FCS-medium was removed and replaced with DMEM/HG/serum-free medium. Two weeks after the isolation, the immune staining took place with anti-neurofilament (68 kDa) as a marker for neurons, and anti-GFAP as a marker for glial cells. The cultures contained >80% neurons; the residual 20% were GFAP-positive cells, mainly astrocytes (Ushijima et al. (1995) Eur. J. Neurosci. 7:1353-9). The neurons were held in an atmosphere of 95% air and 5% CO2 at 37° C.
Loading of neurons with Fura-2-AM: The intracellular Ca^2+-concentration ([Ca^2+]i) was determined by fluorescence measurements. The ratio of the absorption of the Ca^2+-indicator dye Fura-2-AM at 340 and 380 nm (Grynkiewicz et al. (1985) J. Biol. Chem. 260:3440-50) was decisive. The neurons were loaded with 6 μM Fura-2-AM in DMEM/HG/serum-free medium (supplemented with 1% (w/v) bovine serum albumin) at 37° C. for 60 min. After incubation, the cells were washed two times with medium, and further incubated for 45 min at 37° C.
Calcium-calibration curve: A calcium-calibration curve was produced according to the methods of Grynkiewicz et al. (1985, J. Biol. Chem. 260:3440-50). Fluorescence pictures were obtained for each buffer at 340 and 380 nm. The quotient from both fluorescence spectra (340/380 nm) was calculated, and depicted as a calibration curve. The quotient (340/380 nm [ratio-value]) of 1.0 corresponds to 228 nM [Ca^2+]i.
Changes of the calcium level in neurons: In all experimental settings, the cells were first loaded with Fura-2-AM, and subsequently stimulated with different substances (in Locke's solution; 154 mM NaCl; 5.6 mM KCl; 3.6 mM NaHCO3; 5.6 mM glucose, and 10 mM Hepes; pH 7.4; without CaCl2). Sorbicillactone A was dissolved in a concentration of 10 mg/mL in 100% (v/v) DMSO, and stored at −20° C. In the first setting, the neurons were stimulated for 5 min with 0.1% (v/v) DMSO (control); after 10 min 200 μM L-glutamic acid (L-Glu), 200 μM serotonin (5-HT), and 2.5 mM CaCl2 were added to the cells. In a second setting, the effect of L-Glu, 5-HT, and 2.5 mM CaCl2 on the calcium level of pre-incubated neurons (each 5 min with 10 μg/mL sorbicillactone A) was tested. In all experiments, the [Ca^2+]i-level was measured for at least 20-25 min. […]
For orientation: A change in cytosolic calcium serves as a functional read-out for many receptors and channels.

Turning to `C/C=C/C=C/C(O)=C1/C(=O)C(C)=C(O)[C@@]2(C)OC(=O)[C@@](C)(NC(=O)/C=C/C(=O)O)[C@@H]12` [sorbicillactone A], the “effect on [Ca2+]i in neuronal cells” value (10 μg/mL sorbicillactone A alone) is recorded as “nearly no effect”. Also, under “pre-incubation 5 min with 10 μg/mL, then 200 μM L-Glu and 2.5 mM CaCl2, p<0.001, FIG. 1A”, the “reduction in the [Ca2+]i-level” value came out at 46.7%. Moreover, where the note is “pre-incubation with 10 μg/mL, then 200 μM 5-HT and 2.5 mM CaCl2, FIG. 1B”, the “reduction of the free calcium concentration compared to the control” value is given as 77.6%.

Source of the values: patent publication US20070135515A1, “Method for producing sorbicillactone a” (priority 2004, published 2007).
